Assays:
[1] = target: T1, P-glycoprotein 1 (P-gp, hMDR1) (Homo sapiens, UniProt P08183); assay: biochemical
T1 construct: gene ABCB1

[2] = target: T1, P-glycoprotein 1 (P-gp, hMDR1); assay: vanadate-sensitive ATPase activation in P-gp membrane vesicles (PREDEASY kit); supported by Rh123 competition in MDR cells

T1 sequence (P08183 whole entry): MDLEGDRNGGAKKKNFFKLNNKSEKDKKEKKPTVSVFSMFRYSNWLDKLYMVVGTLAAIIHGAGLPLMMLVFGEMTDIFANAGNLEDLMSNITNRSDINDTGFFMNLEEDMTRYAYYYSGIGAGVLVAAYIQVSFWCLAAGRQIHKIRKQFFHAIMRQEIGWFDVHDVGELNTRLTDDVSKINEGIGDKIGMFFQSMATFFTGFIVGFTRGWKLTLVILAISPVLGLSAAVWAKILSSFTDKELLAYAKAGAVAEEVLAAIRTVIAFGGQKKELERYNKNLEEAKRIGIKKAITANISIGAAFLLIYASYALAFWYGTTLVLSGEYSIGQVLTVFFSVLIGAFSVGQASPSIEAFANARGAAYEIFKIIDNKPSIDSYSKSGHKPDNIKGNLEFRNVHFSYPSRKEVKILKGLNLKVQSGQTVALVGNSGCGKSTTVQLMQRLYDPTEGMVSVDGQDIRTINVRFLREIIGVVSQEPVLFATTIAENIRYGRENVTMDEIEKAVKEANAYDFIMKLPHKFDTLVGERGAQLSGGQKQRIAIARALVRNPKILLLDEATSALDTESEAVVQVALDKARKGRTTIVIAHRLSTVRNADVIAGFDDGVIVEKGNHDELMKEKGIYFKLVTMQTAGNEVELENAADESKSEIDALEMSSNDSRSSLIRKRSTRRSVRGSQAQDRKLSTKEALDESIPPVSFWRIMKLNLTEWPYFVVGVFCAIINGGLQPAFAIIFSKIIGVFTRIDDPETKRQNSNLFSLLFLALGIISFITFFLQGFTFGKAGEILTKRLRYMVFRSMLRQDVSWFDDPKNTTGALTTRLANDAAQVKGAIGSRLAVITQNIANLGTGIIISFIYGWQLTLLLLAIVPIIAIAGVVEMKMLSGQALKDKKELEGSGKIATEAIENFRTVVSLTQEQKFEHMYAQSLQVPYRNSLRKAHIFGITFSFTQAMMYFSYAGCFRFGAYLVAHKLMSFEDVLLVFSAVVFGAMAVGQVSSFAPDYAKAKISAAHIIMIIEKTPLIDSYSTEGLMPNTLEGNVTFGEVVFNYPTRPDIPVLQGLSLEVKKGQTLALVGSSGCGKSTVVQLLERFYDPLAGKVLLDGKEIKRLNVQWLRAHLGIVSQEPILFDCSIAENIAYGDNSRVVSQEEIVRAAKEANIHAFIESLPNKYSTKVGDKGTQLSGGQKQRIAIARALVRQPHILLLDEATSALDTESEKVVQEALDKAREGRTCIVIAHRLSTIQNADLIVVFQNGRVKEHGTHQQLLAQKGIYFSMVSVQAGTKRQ

Row | Kd [1] [µM] | SMILES | Kd [2] [µM]
1 | 24.4 | CCOCc1nc2c(N)nc3ccccc3c2n1CC(C)(C)O [RSQ, Resiquimod] | 
2 |  | CC(C)Cn1cnc2c(N)nc3ccccc3c21 [IMQ, Imiquimod] | 7.66

— paper PMC8705394, “Acquired Drug Resistance Enhances Imidazoquinoline Efflux by P-Glycoprotein” (Pharmaceuticals, 2021)
